Assay results as given in article PMC5260423 (Journal of Veterinary Internal Medicine, 2016).

Assays:
[1] = system: Ixodes scapularis; assay type: in vivo, dog
[2] = system: Borrelia burgdorferi; assay type: in vivo, dog; settings: single oral dose; negative antibody, PCR, and culture
[3] = system: Anaplasma phagocytophilum; assay type: in vivo, dog; settings: all sarolaner‐treated dogs
[4] = system: platelet function; assay type: in vivo, dog; settings: day 7
[5] = system: platelet function; assay type: in vivo, dog; settings: day 7; remark: listed apart in the source
[6] = system: platelet function; assay type: in vivo, dog; settings: day 7; HM5 analyzer
[7] = system: tubulin; assay type: cell-based, dog
[8] = assay type: in vivo, dog; settings: mean ± SD; 18 of 20 dogs; single 1 mg/kg oral aspirin; LC‐MS
[9] = assay type: in vivo, dog; settings: 15 mg/kg PO q12 h for 2 weeks
[10] = assay type: in vivo, dog
[11] = system: platelet function; assay type: in vivo, dog
[12] = system: platelet function; assay type: in vivo, dog; settings: Day 7
[13] = system: platelet aggregation; assay type: in vivo, dog; settings: 1 mg/kg orally; 20, 40 and 180 minutes
[14] = assay type: in vivo, dog; settings: 7 days, AST 24 hours after last dose
[15] = assay type: in vivo, dog; remark: listed apart in the source
[16] = target: Angiotensin converting enzyme (ACE) (Canis lupus familiaris, UniProt A0A8I3S3I6); assay type: in vivo, dog; settings: enalapril 0.5 mg/kg orally twice a day, 14–21 days
Chain of Angiotensin converting enzyme (ACE) (A0A8I3S3I6 31-1241 limits assumed): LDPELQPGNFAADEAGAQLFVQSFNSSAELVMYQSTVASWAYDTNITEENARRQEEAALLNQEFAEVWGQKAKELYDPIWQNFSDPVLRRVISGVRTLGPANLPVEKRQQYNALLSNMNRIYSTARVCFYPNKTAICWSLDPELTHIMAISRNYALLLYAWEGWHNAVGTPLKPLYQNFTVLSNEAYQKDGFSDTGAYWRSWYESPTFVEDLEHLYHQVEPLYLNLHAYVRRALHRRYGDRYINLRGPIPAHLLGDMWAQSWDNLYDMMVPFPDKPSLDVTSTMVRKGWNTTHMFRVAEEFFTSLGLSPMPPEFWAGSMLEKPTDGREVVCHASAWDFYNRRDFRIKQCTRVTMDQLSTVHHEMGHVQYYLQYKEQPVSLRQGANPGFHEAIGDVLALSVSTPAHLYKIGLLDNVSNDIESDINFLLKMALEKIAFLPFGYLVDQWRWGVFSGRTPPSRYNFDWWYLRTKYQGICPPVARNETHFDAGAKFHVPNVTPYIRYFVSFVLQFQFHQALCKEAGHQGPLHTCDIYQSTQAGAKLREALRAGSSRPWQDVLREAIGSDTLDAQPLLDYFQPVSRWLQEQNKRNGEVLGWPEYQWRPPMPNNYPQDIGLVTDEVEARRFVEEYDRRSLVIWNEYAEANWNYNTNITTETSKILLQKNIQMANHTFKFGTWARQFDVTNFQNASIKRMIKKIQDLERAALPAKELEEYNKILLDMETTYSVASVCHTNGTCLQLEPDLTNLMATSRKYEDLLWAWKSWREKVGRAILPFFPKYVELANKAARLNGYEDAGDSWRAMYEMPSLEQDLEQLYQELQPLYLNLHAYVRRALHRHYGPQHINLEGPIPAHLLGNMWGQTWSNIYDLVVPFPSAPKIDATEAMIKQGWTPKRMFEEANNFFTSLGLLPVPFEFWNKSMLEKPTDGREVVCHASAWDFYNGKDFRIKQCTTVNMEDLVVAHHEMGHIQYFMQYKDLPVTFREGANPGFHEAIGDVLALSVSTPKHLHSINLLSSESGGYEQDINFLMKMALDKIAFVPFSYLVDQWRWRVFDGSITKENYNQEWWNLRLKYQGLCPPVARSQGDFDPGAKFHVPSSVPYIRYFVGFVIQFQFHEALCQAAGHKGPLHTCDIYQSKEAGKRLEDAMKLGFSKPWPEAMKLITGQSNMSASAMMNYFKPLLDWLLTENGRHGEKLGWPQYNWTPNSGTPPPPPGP

[17] = assay type: in vivo, cat
[18] = system: Anaplasma phagocytophilum; assay type: in vivo, dog
[19] = system: hypothalamic‐pituitary‐thyroid axis; assay type: in vivo, dog; settings: mean dose 0.024 mg/kg every 24 hours for 8 or 16 weeks
[20] = not given; remark: listed apart in the source
[21] = assay type: in vivo, dog; remark: listed apart in the source
[22] = in vivo; cited from earlier work
[23] = not given; remark: listed apart in the source
[24] = assay type: in vivo, dog; remark: listed apart in the source
[25] = assay type: in vivo, dog; remark: listed apart in the source
[26] = assay type: in vivo, dog; remark: listed apart in the source
[27] = system: Pseudomonas aeruginosa; assay type: in vivo, dog
[28] = 8.5 mg/kg orally every 12 hours

Molecule: CS(=O)(=O)CC(=O)N1CC2(C1)OCc1cc(C3=NO[C@@](c4cc(Cl)c(F)c(Cl)c4)(C(F)(F)F)C3)ccc12 [sarolaner]
- percent reduction in mean live tick counts, Day 29, treated 28 days prior ([1]; 2 mg/kg oral): 90.9%
- percent reduction in mean live tick counts, Day 30, treated 21 days prior ([1]; 2 mg/kg oral): 100%
- percent reduction in mean live tick counts, Day 30, treated 28 days prior ([1]; 2 mg/kg oral): 97.1%
- percent reduction in mean live tick counts, Day 33, treated 21 days prior ([1]; 2 mg/kg oral): 100%
- percent reduction in mean live tick counts, Day 33, treated 28 days prior ([1]; 2 mg/kg oral): 100%
- adverse reactions to treatment ([1]; dog, in vivo): no adverse reactions
- transmission of B. burgdorferi to dogs infested 21 or 28 days after treatment [2]: prevented transmission
- A. phagocytophilum antibody in treated dogs [3]: negative antibody

Molecule: COC(=O)[C@H](c1ccccc1Cl)N1CCc2sccc2C1 [clopidogrel]
- MP AUC with AA, post treatment mean [4]: 19 U
- MP AUC with ADP, post treatment mean [4]: 13 U
- PFA closure time, COL‐ADP cartridge, post treatment mean [5]: 185 s
- PFA closure time, P2Y cartridge, post treatment mean [5]: > 300 s
- PW % aggregation with AA, post treatment mean [6]: 4%
- PW % aggregation with ADP, post treatment mean [6]: 9%

Molecule: COC(=O)Nc1nc2ccc(C(=O)c3ccccc3)cc2[nH]1 [MBZ, mebendazole]
- tubulin depolymerization versus untreated control [7]: increased depolymerization of tubulin

Molecule: O=C(O)c1ccccc1O [SA, salicylic acid]
- maximum plasma concentrations (Cmax) [8]: 21 ± 5 µM

Molecule: Cc1ncc([N+](=O)[O-])n1CCO [Metronidazole, metronidazole]
- altered fecal metabolites, out of 469 measured [9]: 98
- fecal secondary bile acids ([9]; P < 0.001): reduction in secondary bile acids

Molecule: C[C@]12CCC(=O)C=C1CC[C@@H]1[C@@H]2[C@@H](O)C[C@@]2(C)[C@H]1CC[C@]2(O)C(=O)CO [Hydrocortisone, hydrocortisone]
- serum adiponectin concentrations on days 1, 3, 7, 30, 60, and 90 versus day 0 [10, 28]: decreased
- serum leptin concentrations on days 1, 3, 7, 30, 60, and 90 versus day 0 [10, 28]: significantly increased
- abdominal visceral fat mass on days 30, 60, and 90 versus day 0 ([10]; 8.5 mg/kg orally every 12 hours for 90 days, six dogs, CT): increased abdominal visceral fat mass

Molecule: CC(=O)Oc1ccccc1C(=O)O [aspirin, acetylsalicylic acid]
- mean decrease in maximum amplitude, Dose A ([11]; 0.5 mg/kg, q24 h PO, Day 7 versus Day 0): 3.8%
- mean decrease in maximum amplitude, Dose B ([11]; 1 mg/kg, q24 h PO, Day 7): 41.3%
- mean decrease in maximum amplitude, Dose C ([11]; 2 mg/kg, q24 h PO, Day 7): 81.3%
- mean decrease in maximum amplitude, Dose D ([11]; 4 mg/kg, q24 h PO, Day 7): 75.9%
- mean decrease in maximum amplitude, Dose E ([11]; 10 mg/kg, q12 h PO, Day 7): 87.8%
- dogs with PFA‐100 closure time >300 seconds, Dose A ([12]; 0.5 mg/kg, q24 h): 0%
- dogs with PFA‐100 closure time >300 seconds, Dose B ([12]; 1 mg/kg, q24 h): 25%
- dogs with PFA‐100 closure time >300 seconds, Dose C ([12]; 2 mg/kg, q24 h): 62.5%
- dogs with PFA‐100 closure time >300 seconds, Dose D ([12]; 4 mg/kg, q24 h): 87.5%
- dogs with PFA‐100 closure time >300 seconds, Dose E ([12]; 10 mg/kg, q12 h): 87.5%
- PW % aggregation with AA, post treatment mean [6]: 7%
- inhibition of platelet aggregation after single dose [13]: did not cause measureable inhibition of platelet aggregation
- maximum plasma concentrations (Cmax) [8]: 0.23 ± 0.21 µM

Molecule: CC(=O)OCC(=O)[C@@]1(O)CC[C@H]2[C@@H]3CCC4=CC(=O)CC[C@]4(C)[C@H]3C(=O)C[C@@]21C [CA, cortisone acetate]
- mean (±SEM) post AST serum cortisol, 25 mg [14]: 335 ± 13 nmol/L
- mean (±SEM) post AST serum cortisol, 37.5 mg [14]: 326 ± 13 nmol/L
- mean (±SEM) post AST serum cortisol, 50 mg [14]: 308 ± 13 nmol/L
- mean (±SEM) post AST serum cortisol, 12.5 mg ([14]; 14 dogs, placebo 365 ± 13): 347 ± 13 nmol/L

Molecule: cyanocobalamin [cbl]
- median serum cbl after 28 days, PO ([15]; daily cyanocobalamin tablets ¼ to 1 mg by weight, n = 22, 245 at inclusion): 970 ng/L
- mean increase in serum cbl at 28 days to baseline, PE ([15]; dog, in vivo): 1465 ± 745 ng/L
- mean increase in serum cbl at 28 days to baseline, PO ([15]; dog, in vivo, po): 888 ± 449 ng/L
- mean serum cbl after 3 months, PE ([15]; n = 13): 803 ± 275 ng/L
- mean serum cbl after 28 days, PE ([15]; n = 19, 221 ± 43 at inclusion): 1686 ± 757 ng/L
- median serum cbl after 3 months, PO ([15]; n = 20): 1334 ng/L
- median increase in serum cbl after 3 months, PE ([15]; range 38–997): 608 ng/L
- median increase in serum cbl after 3 months, PO ([15]; range 538–3663): 970 ng/L

Molecule: C[C@]12CC[C@H]3[C@@H](CC[C@@]45O[C@@H]4C(O)=C(C#N)C[C@]35C)[C@@H]1CC[C@@H]2O [treatment A, trilostane]
- dogs with complete hair regrowth (after three months of treatment (stated for treatment A)): 50%
- dogs with partial regrowth (dog, in vivo): 37.5%

Molecule: CCOC(=O)[C@H](CCc1ccccc1)N[C@@H](C)C(=O)N1CCC[C@H]1C(=O)O [enalapril]
- median post therapy ACE activity, dogs homozygous for DNA variant ([16]; baseline 18.05 U/L): < 5.0 U/L
- median post therapy ACE activity, wildtype dogs ([16]; baseline 27.4 U/L): < 5.0 U/L

Molecule: COc1ccc2[nH]c([S+]([O-])Cc3ncc(C)c(OC)c3C)nc2c1 (stereo not drawn) [omeprazole]
- serum gastrin in comparison to placebo ([17]; 0.83–1.6 mg/kg PO q12 h for 60 days, 6 cats, P < 0.002): significantly higher
- intragastric pH after cessation ([17]; two cats with intragastric pH capsules): Evidence of gastric hyperacidity

Molecule: C[C@]12C=CC(=O)C=C1CC[C@@H]1[C@@H]2[C@@H](O)C[C@@]2(C)[C@H]1CC[C@]2(O)C(=O)CO [prednisolone]
- clinical abnormalities ([18]; prednisolone 2 mg/kg PO daily for 2 weeks from Week 24): Clinical abnormalities were not detected

Molecule: N[C@@H](Cc1cc(I)c(Oc2cc(I)c(O)c(I)c2)c(I)c1)C(=O)O [levothyroxine]
- mean serum TSH during administration compared to baseline [19]: significantly lower
- mean serum T4 and fT4 during administration compared to baseline ([19]; 28 dogs): significantly higher

Molecule: O=P1(N(CCCl)CCCl)NCCCO1 (stereo not drawn) [cyclophosphamide]
- dogs with stable disease or partial/complete remission >100 days ([20]; 10 mg cyclophosphamide daily/every other day): 74%
- dogs that developed haematuria ([20]; 10 mg cyclophosphamide daily/every other day, three dogs): 8.6%
- dogs still alive over one year later ([20]; 13 of 35 dogs): 37%
- dogs with DFI >6 months ([20]; 20 of 35 dogs): 57%
- median survival time (MST), intermediate/high grade sarcomas ([20]; n = 18): 362 days

Molecule: Darbepoetin alfa
- possible PRCA ([21]; 1/34 dogs): 2.9%
- dogs with potential adverse events ([21]; dog, in vivo): 19/34
- longest dosing interval at which a response was sustained ([21]; dog, in vivo): ≤ 21 days
- responders (HCT of 30% achieved) ([21]; median starting dose 0.5 mcg/kg, every 7 days in 31/34 dogs): Twenty‐nine of 34 dogs were responders
- median time to response ([21]; range 6 ‐ 106): 28 days
- median survival following initiation of therapy ([21]; range 30 – 546): 118 days
- cats that responded, of 25 [22]: 14 cats

Molecule: COc1ccc2[nH]cc(CCNC(C)=O)c2c1 [treatment C, melatonin]
- tolerability (one of the two dogs): had to be withdrawn due to emesis

Molecule: C[C@H]1c2cccc(O)c2C(=O)C2=C(O)[C@]3(O)C(=O)C(C(N)=O)=C(O)[C@@H](N(C)C)[C@@H]3[C@@H](O)[C@@H]21 [doxycycline]
- AP antibodies on Week 48 in Group 1 ([18]; doxycycline 5 mg/kg PO twice daily for 4 weeks from Week 20): The only dogs that became AP seronegative by Week 48 were administered doxycycline

Molecule: COc1cccc2c1C(=O)c1c(O)c3c(c(O)c1C2=O)C[C@@](O)(C(=O)CO)C[C@@H]3O[C@H]1C[C@H](N)[C@H](O)[C@H](C)O1 [doxorubicin]
- MTD of doxorubicin in the combination ([23]; IV every 21 days with toceranib 2.75 mg/kg PO every other day, 21 dogs): 25 mg/m2
- dose limiting toxicity (DLT) ([23]; dog, in vivo): neutropenia

Molecule: Cc1oncc1C(=O)Nc1ccc(C(F)(F)F)cc1 [leflunomide]
- increased liver enzyme activities ([24]; 1 of 16): 6.3%
- thrombocytopenia ([24]; 2 of 31): 6.5%
- lethargy ([24]; 2 of 92): 2.2%
- suspect blood dyscrasia ([24]; 3 of 92): 3.3%
- diarrhea ([24]; 3 of 92, mean dose 1.79 ± 0.8 mg/kg/day): 3.3%
- discontinued due to possible adverse events ([24]; 6 dogs): 6.5%
- dogs with apparent positive response ([24]; 12 of 17 dogs (IMPA, IMTP, CH)): 70.5%

Molecule: CCOc1cc(N)c(Cl)cc1C(=O)NCC1CN(Cc2ccc(F)cc2)CCO1 (stereo not drawn) [mosapride]
- median increase of plasma motilin after feeding, Group N ([25]; feeding only 65.0): -1.6 pg/mL
- median increase of plasma motilin after feeding, Group S ([25]; feeding only 173.3): 37.0 pg/mL

Molecule: Cc1[nH]c(/C=C2\C(=O)Nc3ccc(F)cc32)c(C)c1C(=O)NCCN1CCCC1 [toceranib phosphate]
- median time to development of proteinuria ([26]; dogs that developed proteinuria): 47 days
- median UPC in dogs that developed proteinuria ([26]; urine protein creatinine ratio): 0.7

Molecule: CC[C@H]1OC(=O)[C@H](C)[C@@H](O[C@H]2C[C@@](C)(OC)[C@@H](O)[C@H](C)O2)[C@H](C)[C@@H](O[C@@H]2O[C@H](C)C[C@H](N(C)C)[C@H]2O)[C@](C)(O)C[C@@H](C)CN(C)[C@H](C)[C@@H](O)[C@]1(C)O [Azithromycin]
- concentration of BHL, HHL and OdDHL in ear canal samples ([27]; 1 mL of 50 µg/mL topical SID for 56 days, P ≥ 0.2): not affected
- clinical signs and duration of the disease ([27]; P = 0.5): no effect
